Entries after “also recorded” stand apart in the source; their conditions may differ. Like-named read-outs stand apart in the source and are kept apart here.
Tests used:
[1] = tested on: isolated rat liver mitochondria; experiment: Residual functional capacity / inhibitory effect on ADP-stimulated (state 3) oxygen consumption; assay type: biochemical
[2] = tested on: isolated rat liver mitochondria; experiment: Uncoupling activity: increase in basal (state 4) oxygen consumption by oxygraphy; assay type: biochemical; conditions: for uncoupling activity: result in words
[3] = test conc. 25 μM, functional capacity (state 3 minus state 4 rate) as % of vehicle-treated mitochondria
[4] = test conc. 100 μM, functional capacity (state 3 minus state 4 rate) as % of vehicle-treated mitochondria
[5] = Suppl. Table 1, 100 μM, 2-3 mitochondrial preparations
[6] = test conc. 25 μM, increase in basal (state 4) oxygen consumption as % of average ADP-stimulated (state 3) rate in vehicle-treated mitochondria
[7] = test conc. 100 μM, increase in basal (state 4) oxygen consumption as % of average ADP-stimulated (state 3) rate in vehicle-treated mitochondria

Row | SMILES | Inhibitory effect (%) ([1]; test conc. 100 μM) | Residual capacity (%) [1, 4] [%] | Measured Uncoupling Activity (% uncoupling ± SEM @ 100 μM) [2, 5] [% uncoupling] | Uncoupling (%) [2, 7] [%] | uncoupling activity ([2]; 100 μM) | also measured
1 | COc1ccc(C2CC(=O)c3c(O)cc(O)cc3O2)cc1O (racemic) [(±) hesperetin, hesperetin] | 14 | 81 ± 2 | 5 ± 1 | 5 ± 1 |  | Inhibitory effect (%) ([1]; test conc. 25 μM): 8%; Residual capacity (%) [1, 3]: 91 ± 8%; Uncoupling (%) [2, 6]: 1 ± 1%
2 | O=C1C[C@@H](c2ccc(O)cc2)Oc2cc(O)cc(O)c21 (racemic) [(±) naringenin, naringenin] | 31 | 65 ± 7 | 4 ± 2 | 4 ± 2 |  | 
3 | Oc1cc(O)c2c(c1)OC(c1ccc(O)c(O)c1)C(O)C2 (single isomer, unassigned; (+)) [(+) catechin, catechin] | 2 | 98 ± 5 | −2 ± 0 | −2 ± 0 |  | 
4 | CC(=O)c1ccc(O)cc1 [4-acetylphenol] | 13 | 87 ± 1 | 0 ± 0 | 0 ± 0 | lack of activity | 
5 | O=C(/C=C/c1ccccc1)c1ccc(O)cc1 [4′-hydroxychalcone] | 0 | 26 ± 19 | 74 ± 14 | 74 ± 14 |  | Inhibitory effect (%) ([1]; test conc. 25 μM): 7%; Residual capacity (%) [1, 3]: 80 ± 2%; Measured Uncoupling (% uncoupling ± SEM @ 100 μM) ([2]; Table 1A, 100 μM, relative to ADP-stimulated respiration = 100%): 74 ± 14 % uncoupling; Uncoupling (%) [2, 6]: 13 ± 2%
6 | O=c1ccoc2cc(O)ccc12 [7-hydroxychromone] | 14 | 86 ± 2 | 0 ± 0 | 0 ± 0 | no appreciable activity; also recorded: lack of activity | 
7 | O=C1c2ccccc2C(=O)c2ccccc21 [anthraquinone] | 15 | 85 ± 21 | −1 ± 1 | −1 ± 1 | inactive | 
8 | O=c1cc(-c2ccc(O)cc2)oc2cc(O)cc(O)c12 [apigenin] | 44 | 37 ± 8 | 19 ± 3 | 19 ± 3 |  | Inhibitory effect (%) ([1]; test conc. 25 μM): 28%; Residual capacity (%) [1, 3]: 63 ± 9%; Uncoupling (%) [2, 6]: 9 ± 1%
9 | O=C(O)c1ccccc1 [benzoic acid] |  |  |  |  |  | Inhibitory effect (%) [1]: 4%; Residual capacity (%) [1]: 96 ± 3%; Measured Uncoupling Activity (% uncoupling ± SEM @ 100 μM) [2]: 0 ± 1 % uncoupling; Uncoupling (%) [2]: 0 ± 1%
10 | O=C(O[C@@H]1Cc2c(O)cc(O)cc2O[C@@H]1c1cc(O)c(O)c(O)c1)c1cc(O)c(O)c(O)c1 [epigallocatechin gallate] |  |  |  |  | devoid of activity | 
11 | CC(=O)c1ccc(O)cc1 [para-acetylphenol] |  |  |  |  | no appreciable activity | 
12 | Oc1ccc(C=Cc2cc(O)cc(O)c2)cc1 [resveratrol] |  |  |  |  |  | inhibition of ADP-stimulated oxygen consumption ([1]; screening at 100 μM): inhibitory activity
13 | C(=Cc1ccccc1)c1ccccc1 [stilbene] |  |  |  |  | inactive | 
14 | Oc1cc(O)cc(/C=C/c2ccc(O)c(O)c2)c1 [trans-piceatannol] |  |  | 5 ± 1 |  |  | 
15 | Oc1ccc(/C=C/c2cc(O)cc(O)c2)cc1 [trans-resveratrol] |  |  | 2 ± 0 |  |  | 
16 | C(=C\c1ccccc1)/c1ccccc1 [trans-stilbene] |  |  | −1 ± 1 |  |  | 
